For the assay, the system named is Hela cells. As to the kind of experiment: Cytotoxicity of Doxorubicin concentrations generated by the microfluidic gradient generator (CCK-8). In kind it is cell-based, Human. The following applies: gradient 100-0 μg/ml DOX at the outlet ports, 24 h incubation, surface modified channels. Here is the method: Hela cells were cultured in EMEM media supplemented with 10% fetal bovine serum (FBS) and 1% penicillin-streptomycin at 37° C. in a 5% CO2 humidified atmosphere. After cell detachment, the cell suspension was centrifuged, the pallet was collected, and cells were counted for further plating. Hela cells were seeded in 96 well plates at a density of 5×10^3/well. Alter 24 h, cells were treated with five different concentrations of the anticancer drug Doxorubicin (DOX) generated by the microfluidic gradient generator at a flow rate of 8.5 μl/min. The incubation of cells with test samples lasts for 24 h at 37° C. Then, the culture medium was discarded, and 100 μL of CCK8 solution in MEM media were added to each well and incubated for 4 h in darkness. The absorbance values were measured at […] using the xMark™ microplate absorbance spectrophotometer.
Two types of 3D printer resins (1) FormLabs clear and (2) Spot-Elastic were used to build microfluidic devices. The media for cell cultures were injected by passing the EMEM media through the reported microfluidic gradient generator, Both the inlets were fed with media for the first experiment. […] Doxorubicin was introduced to the cell culture after surface modification, and only one of the inlets was fed with Doxorubicin incorporated EMEM media and the other was fed with normal (Doxorubicin-free) EMEM media. […]

In the case of `COc1cccc2c1C(=O)c1c(O)c3c(c(O)c1C2=O)C[C@@](O)(C(=O)CO)C[C@@H]3O[C@H]1C[C@H](N)[C@H](O)[C@H](C)O1` [DOX, Doxorubicin], the “cell viability versus DOX concentration (in words)” value is on record as “higher viability with a decrease in concentration of DOX”.

These data come from patent US11065616B2, “Methods of making microfluidic devices” (KING ABDULLAH UNIVERSITY OF SCIENCE AND TECHNOLOGY, priority 2015, dated 2021).
